Measurements: BindingDB's records for doi:10.1016/j.bmcl.2008.02.001 (Cephalon, 2008)

Experiment: Inhibition of VEGF-stimulated VEGFR2 autophosphorylation in HUVEC cells […] relative to control

IC50: 4 nM
SMILES: CO/N=C(\C)c1ccc2c(c1)c1c3c(c4c(c1n2CC(C)C)CCc1nn(C)cc1-4)C(=O)NC3 [7-[(1E)-1-(methoxyimino)ethyl]-19-methyl-3-(2-methylpropyl)-3,13,19,20-tetraazahexacyclo[14.7.0.0^{2,10}.0^{4,9}.0^{11,15}.0^{17,21}]tricosa-1(16),2(10),4,6,8,11(15),17,20-octaen-14-one]
